Measurements as given in patent US9504671B2, “Pharmaceutical compositions of spiro-oxindole compound for topical administration and their use as therapeutic agents” (Xenon Pharmaceuticals Inc., priority 2010, dated 2016).
“And” between values parts separate entries of the source, which are not always exact repeats. Equal values may be shown once.

Assays:
[1] = system: CCI neuropathic pain model; assay: efficacy of topical versus oral administration, Chronic Constriction Injury, von Frey; assay type: in vivo, male Sprague Dawley rats; settings: p<0.001 vs vehicle
From the text: The Chronic Constriction Injury (CCI) model, an established neuropathic pain model in the rat, is used in this study to compare the levels of efficacy and systemic exposure of COMPOUND A between the topical and oral administration in male rats.
A peripheral neuropathy was induced in rats by placing loose constrictive ligatures around the common sciatic nerve as described by Bennett G J, and Xie Y-K., Pain, (1988) 33: pp. 87-107. Eight-week old male Sprague Dawley rats were anaesthetized with 3.5% isoflurane, and a 3 cm incision was made through the skin and fascia at the mid-thigh level of the animal's left hind leg using a no. 10 scalpel blade. […]
A painful neuropathy was allowed to develop in the ipsilateral leg as determined by lower paw withdrawal thresholds to a mechanical stimulus. Only those with significant hyperalgesia as determined by reduced threshold, measured in grams, to paw withdrawal to the von Frey filament were enrolled in the study.
The paw withdrawal thresholds of animals from mechanical tactile stimuli were measured using the Model 2290 Electrovonfrey anesthesiometer (IITC Life Science, Woodland Hills, Calif.). […] After 15 minutes of accommodation in this enclosure, a von Frey hair was applied perpendicularly to the plantar surface of the ipsilateral hind paws of the animals, with sufficient force, measured in grams, to elicit a crisp response of the paw. […]

animal models = assay: animal models, oral dosing (earlier studies); assay type: in vivo; settings: oral dose of 25 mg/Kg, previous studies
From the text: For example, the mildly painful stimuli from scratching are effective in abolishing the itch sensation. In contrast, analgesics such as opioids can generate severe pruritis. The antagonistic interaction between pain and itch can be exploited in pruritis therapy, and current research concentrates on the identification of common targets for future analgesic and antipruritis therapy. […] Accordingly, COMPOUND A, as an enantiomer or a pharmaceutically acceptable salt thereof, can also be useful for treating pruritis.
Following paw withdrawal baseline measurements, animals were randomly divided into 4 different test groups (N=8 animals/group), including a vehicle control group for oral dosage, a vehicle control group for topical dosage, and two treatment groups. For the oral dosage groups, animals were dosed by oral gavages after baseline measurement. […] For the topical dosage groups, 50 mg of the test composition was applied on the ipsilateral ankle and foot. […] Von Frey withdrawal thresholds were measured as the mean of several independent determinations made within 1-2 minutes of each other on the affected paw of each animal. Withdrawal measurements were taken 60 minutes post dosing for the oral dosage group and 30 minutes post-dosing for the topical dosage group, representing their respective peak efficacy time points as determined in previous studies.

O=C1N(Cc2ccc(C(F)(F)F)o2)c2ccccc2[C@]12COc1cc3c(cc12)OCO3 [COMPOUND A, (S)-1′-{[5-(trifluoromethyl)furan-2-yl]methyl}spiro[furo[2,3-f][1,3]benzodioxole-7,3′-indol]-2′(1′H)-one]
paw withdrawal threshold, percent mean change from baseline (CFB) ([1]; 25 mg/Kg oral gavage, 60 minutes post-dosing): 44.3% and 44% | paw withdrawal threshold, percent mean change from baseline (CFB) ([1]; 8% (w/w) topical, 50 mg on ipsilateral ankle and foot, 30 minutes post-dosing): 47.1% and 47% | reversal of pain response (animal models): approximately half-maximal reversal of pain response
